# Assay results from PMC10742472, “Synthesis and Characterisation of Platinum(II) Diaminocyclohexane Complexes with Pyridine Derivatives as Anticancer Agents” (International Journal of Molecular Sciences, 2023).
# Test system: Du145 (Prostate)
# Experiment: MTT cytotoxicity assay, Du145
# Format: cell-based
# Conditions: 72 h exposure
row,Molecule,GI50 [µM]
1,N[C@H]1CCCC[C@@H]1N.[Pt+2].c1ccc(-c2nc3ccccc3[nH]2)nc1 [Complex 6a],0.3 ± 0.04
2,"[Pt(2-(1H-Imidazol-2-yl)pyridine)(1R,2R-(+)-diaminocyclohexane)]^2+ [Complex 5b]",0.44 ± 0.07
3,"[Pt(2-pyrrolidin-2-yl pyridine)(1R,2R-(+)-diaminocyclohexane)]^2+ [Complex 4b]",> 50
4,"N[C@H]1CCCC[C@@H]1N.[Pt+2].c1ccc(-c2ncc[nH]2)nc1 [Complex 5a, [Pt(2-(1H-Imidazol-2-yl)pyridine)(1S,2S-(+)-diaminocyclohexane)]^2+]",0.29 ± 0.07

# Test system: H460 (Lung)
# Experiment: MTT cytotoxicity assay, H460
# Format: cell-based
# Conditions: 72 h exposure
row,Molecule,GI50 [µM]
1,N[C@H]1CCCC[C@@H]1N.[Pt+2].c1ccc(-c2nc3ccccc3[nH]2)nc1 [Complex 6a],0.26 ± 0.04
2,"[Pt(2-(1H-Imidazol-2-yl)pyridine)(1R,2R-(+)-diaminocyclohexane)]^2+ [Complex 5b]",0.37 ± 0.05
3,"[Pt(2-pyrrolidin-2-yl pyridine)(1R,2R-(+)-diaminocyclohexane)]^2+ [Complex 4b]",31 ± 0.88
4,"N[C@H]1CCCC[C@@H]1N.[Pt+2].c1ccc(-c2ncc[nH]2)nc1 [Complex 5a, [Pt(2-(1H-Imidazol-2-yl)pyridine)(1S,2S-(+)-diaminocyclohexane)]^2+]",0.29 ± 0.05

# Test system: MCF10A (Breast, Normal)
# Experiment: MTT cytotoxicity assay, MCF10A non-cancer breast cells
# Format: cell-based
# Conditions: 72 h exposure
row,Molecule,GI50 [µM]
1,N[C@H]1CCCC[C@@H]1N.[Pt+2].c1ccc(-c2nc3ccccc3[nH]2)nc1 [Complex 6a],0.15 ± 0.01
2,"[Pt(2-(1H-Imidazol-2-yl)pyridine)(1R,2R-(+)-diaminocyclohexane)]^2+ [Complex 5b]",0.22 ± 0.03
3,"[Pt(2-pyrrolidin-2-yl pyridine)(1R,2R-(+)-diaminocyclohexane)]^2+ [Complex 4b]",45
4,"N[C@H]1CCCC[C@@H]1N.[Pt+2].c1ccc(-c2ncc[nH]2)nc1 [Complex 5a, [Pt(2-(1H-Imidazol-2-yl)pyridine)(1S,2S-(+)-diaminocyclohexane)]^2+]",0.15 ± 0.03

# Test system: A431 (Skin)
# Experiment: MTT cytotoxicity assay, A431
# Format: cell-based
# Conditions: 72 h exposure
row,Molecule,GI50 [µM]
1,N[C@H]1CCCC[C@@H]1N.[Pt+2].c1ccc(-c2nc3ccccc3[nH]2)nc1 [Complex 6a],0.36 ± 0.05
2,"[Pt(2-(1H-Imidazol-2-yl)pyridine)(1R,2R-(+)-diaminocyclohexane)]^2+ [Complex 5b]",0.49 ± 0.07
3,"[Pt(2-pyrrolidin-2-yl pyridine)(1R,2R-(+)-diaminocyclohexane)]^2+ [Complex 4b]",30 ± 4.7
4,"N[C@H]1CCCC[C@@H]1N.[Pt+2].c1ccc(-c2ncc[nH]2)nc1 [Complex 5a, [Pt(2-(1H-Imidazol-2-yl)pyridine)(1S,2S-(+)-diaminocyclohexane)]^2+]",0.37 ± 0.06

# Test system: MCF-7 (Breast)
# Experiment: MTT cytotoxicity assay, MCF-7
# Format: cell-based
# Conditions: 72 h exposure
row,Molecule,GI50 [µM]
1,N[C@H]1CCCC[C@@H]1N.[Pt+2].c1ccc(-c2nc3ccccc3[nH]2)nc1 [Complex 6a],0.16 ± 0.03
2,"[Pt(2-(1H-Imidazol-2-yl)pyridine)(1R,2R-(+)-diaminocyclohexane)]^2+ [Complex 5b]",0.3 ± 0.07
3,"[Pt(2-pyrrolidin-2-yl pyridine)(1R,2R-(+)-diaminocyclohexane)]^2+ [Complex 4b]",12.5 ± 0.76
4,"N[C@H]1CCCC[C@@H]1N.[Pt+2].c1ccc(-c2ncc[nH]2)nc1 [Complex 5a, [Pt(2-(1H-Imidazol-2-yl)pyridine)(1S,2S-(+)-diaminocyclohexane)]^2+]",0.15 ± 0.03

# Test system: BE2-C (Neuroblastoma)
# Experiment: MTT cytotoxicity assay, BE2-C
# Format: cell-based
# Conditions: 72 h exposure
row,Molecule,GI50 [µM]
1,N[C@H]1CCCC[C@@H]1N.[Pt+2].c1ccc(-c2nc3ccccc3[nH]2)nc1 [Complex 6a],0.19 ± 0.02
2,"[Pt(2-(1H-Imidazol-2-yl)pyridine)(1R,2R-(+)-diaminocyclohexane)]^2+ [Complex 5b]",0.3 ± 0.05
3,"[Pt(2-pyrrolidin-2-yl pyridine)(1R,2R-(+)-diaminocyclohexane)]^2+ [Complex 4b]",31 ± 1.2
4,"N[C@H]1CCCC[C@@H]1N.[Pt+2].c1ccc(-c2ncc[nH]2)nc1 [Complex 5a, [Pt(2-(1H-Imidazol-2-yl)pyridine)(1S,2S-(+)-diaminocyclohexane)]^2+]",0.21 ± 0.04

# Test system: U87 (Glioblastoma)
# Experiment: MTT cytotoxicity assay, U87
# Format: cell-based
# Conditions: 72 h exposure
row,Molecule,GI50 [µM]
1,N[C@H]1CCCC[C@@H]1N.[Pt+2].c1ccc(-c2nc3ccccc3[nH]2)nc1 [Complex 6a],0.034 ± 0.003
2,"[Pt(2-(1H-Imidazol-2-yl)pyridine)(1R,2R-(+)-diaminocyclohexane)]^2+ [Complex 5b]",0.05 ± 0.01
3,"[Pt(2-pyrrolidin-2-yl pyridine)(1R,2R-(+)-diaminocyclohexane)]^2+ [Complex 4b]",43 ± 0.67
4,"N[C@H]1CCCC[C@@H]1N.[Pt+2].c1ccc(-c2ncc[nH]2)nc1 [Complex 5a, [Pt(2-(1H-Imidazol-2-yl)pyridine)(1S,2S-(+)-diaminocyclohexane)]^2+]",0.036 ± 0.009

# Test system: SJ-G2 (Glioblastoma)
# Experiment: MTT cytotoxicity assay, SJ-G2
# Format: cell-based
# Conditions: 72 h exposure
row,Molecule,GI50 [µM]
1,N[C@H]1CCCC[C@@H]1N.[Pt+2].c1ccc(-c2nc3ccccc3[nH]2)nc1 [Complex 6a],2.7 ± 0.29
2,"[Pt(2-(1H-Imidazol-2-yl)pyridine)(1R,2R-(+)-diaminocyclohexane)]^2+ [Complex 5b]",4.5 ± 0.6
3,"[Pt(2-pyrrolidin-2-yl pyridine)(1R,2R-(+)-diaminocyclohexane)]^2+ [Complex 4b]",> 50
4,"N[C@H]1CCCC[C@@H]1N.[Pt+2].c1ccc(-c2ncc[nH]2)nc1 [Complex 5a, [Pt(2-(1H-Imidazol-2-yl)pyridine)(1S,2S-(+)-diaminocyclohexane)]^2+]",2.7 ± 0.46

# Test system: HT29 (Colon)
# Experiment: MTT cytotoxicity assay, HT29
# Format: cell-based
# Conditions: 72 h exposure
row,Molecule,GI50 [µM]
1,N[C@H]1CCCC[C@@H]1N.[Pt+2].c1ccc(-c2nc3ccccc3[nH]2)nc1 [Complex 6a],0.45 ± 0.02
2,"[Pt(2-(1H-Imidazol-2-yl)pyridine)(1R,2R-(+)-diaminocyclohexane)]^2+ [Complex 5b]",0.75 ± 0.07
3,"[Pt(2-pyrrolidin-2-yl pyridine)(1R,2R-(+)-diaminocyclohexane)]^2+ [Complex 4b]",> 50
4,"N[C@H]1CCCC[C@@H]1N.[Pt+2].c1ccc(-c2ncc[nH]2)nc1 [Complex 5a, [Pt(2-(1H-Imidazol-2-yl)pyridine)(1S,2S-(+)-diaminocyclohexane)]^2+]",0.56 ± 0.1

# Test system: not given
# Experiment: not given
# Format: physicochemical
# Conditions: not given
# Experimental: Lipophilicity was calculated using RP-HPLC. A stock solution of each PC was injected at different isocratic ratios ranging from 70–90% solvent B (organic) at a flow rate of 1 mL·min^−1 [32, 33, 34]. The complexes have low solubility in water, often requiring DMSO to make concentrated solutions. Yet the LogK’ calculated using these experimental data indicated high lipophilicity, which is typical for 2+ charged complexes. […] When heat was applied, they would not precipitate out of the solution after cooling. This confirmed that a lack of persistence was the cause of the “observed” low solubility in H2O. […] Their increased lipophilicity may indicate they have the potential to be administered orally, a characteristic usually associated with Pt(IV) complexes. Other factors, such as stability and cellular absorption, would need to be considered before the potential of these Pt(II) anticancer agents could be evaluated.
# Lipophilicity was evaluated using RP-HPLC, whereby LogKw is calculated by injecting a stock solution of the PC at different isocratic ratios ranging from 70–90% solvent B (organic) at a flow rate of 1 mL·min^−1. An Agilent Technologies 1260 Infinity machine equipped with a Phenomenex Onyx™ Monolithic C18 reverse phase column (100 × 4.6 mm, 130 Å) was used to determine purity. The mobile phase comprised 0.06% TFA in water (solvent A) and 0.06% TFA in 90:10 ACN:H2O mixture (solvent B). The PC peak was eluted outside the dead zero volume time to avoid inaccurate results. The dead zero volume time was determined using potassium iodide as an external dead volume marker, with further details in the Supplementary Materials. The subsequent peaks were recorded, and K was calculated using Equation (6). (6) K=tr−t0/t0 where K is the capacity factor, tr is the retention time of the analyte, and t0 is the dead time determined using a solution of KI in the same column. At least five different isocratic ratios were used to assess each PC, and each experiment was repeated three times. LogK’ was then calculated and plotted against the concentration of ACN in the mobile phase. […] (7) LogK^′=Sφ+LogKw where S is the slope, φ is the concentration of ACN in the mobile phase, and LogKw represents the capacity factor of the compound in 100% water (Figure S49).
row,Molecule,Lipophilicity
1,N[C@H]1CCCC[C@@H]1N.[Pt+2].c1ccc(-c2nc3ccccc3[nH]2)nc1 [Complex 6a],2.42 ± 0.02
2,"N[C@H]1CCCC[C@@H]1N.[Pt+2].c1ccc(-c2ncc[nH]2)nc1 [Complex 5a, [Pt(2-(1H-Imidazol-2-yl)pyridine)(1S,2S-(+)-diaminocyclohexane)]^2+]",2.50 ± 0.02

# Test system: Calf-thymus DNA (ctDNA)
# Experiment: Fluorescent intercalator displacement (FID) ctDNA binding assay with ethidium bromide
# Parameters: Ka (binding coefficient) / KF (binding constant for fluorescence) / Kq (bimolecular quenching constant) / KSV (Stern–Volmer quenching constant): unit not given here
# Conditions: 75 µM ethidium bromide, 150 µM ctDNA, pH 7.0
# Experimental: To achieve this, the fluorescent signal of a DNA intercalator, in this case, ethidium bromide (EtBr), is measured as increasing concentrations of PC are added. As the PC displaces the EtBr, the fluorescence of the mixture is diminished, and the DNA binding capacity of the complex can be calculated from the fluorescence measurement. Calf-thymus DNA (ctDNA) was used and saturated with EtBr. The change in fluorescence is monitored as the complex is titrated into this solution. Once the decrease in fluorescence plateaued, the titration was ended. […] The fluorescence was measured from 550-750 nm and excited at 480 nm. Importantly, the cuvette was inverted four times, and the solution was incubated for 3 min after the addition of […] to allow adequate time for the PCs to interact with the DNA before scanning. […] A plot of F0/F against [PC] using experimental values allowed the determination of Kq and KSV from the slope as per Equation (5). (5) […] where n is the number of ethidium ligands that are displaced per PC. It is important to note that this expression is a simplification of the true binding interaction, as it ignores the effect of EtBr on the binding equilibrium. […] A plot of Log10[(F0 - F)/F)] against Log10[PC] was used to determine KF and n from the intercept and slope, respectively.
Molecule,Binding Stoichiometry,KF (binding constant for fluorescence),KSV (Stern–Volmer quenching constant),Ka (binding coefficient),Kq (bimolecular quenching constant),n (molar equivalents of PC at the point of intersection),ΔFsat (change in fluorescence at the point of binding)
N[C@H]1CCCC[C@@H]1N.[Pt+2].c1ccc(-c2nc3ccccc3[nH]2)nc1 [Complex 6a],0.84,2.94 × 10^3,2.12 × 10^3,0.66 × 10^4,0.30 × 10^3,0.71,116.7
"[Pt(2-(1H-Imidazol-2-yl)pyridine)(1R,2R-(+)-diaminocyclohexane)]^2+ [Complex 5b]",0.78,3.66 × 10^3,2.54 × 10^3,3.15 × 10^4,0.41 × 10^3,0.95,165.9
"[Pt(2-pyrrolidin-2-yl pyridine)(1R,2R-(+)-diaminocyclohexane)]^2+ [Complex 4b]",1.17,5.77 × 10^3,3.85 × 10^3,1.40 × 10^4,0.74 × 10^3,1.68,121.0
"N[C@H]1CCCC[C@@H]1N.[Pt+2].c1ccc(-c2ncc[nH]2)nc1 [Complex 5a, [Pt(2-(1H-Imidazol-2-yl)pyridine)(1S,2S-(+)-diaminocyclohexane)]^2+]",0.80,3.16 × 10^3,2.11 × 10^3,5.89 × 10^4,0.36 × 10^3,0.87,122.4

# Test system: MIA (Pancreas)
# Experiment: MTT cytotoxicity assay, MIA
# Format: cell-based
# Conditions: 72 h exposure
row,Molecule,GI50 [µM]
1,N[C@H]1CCCC[C@@H]1N.[Pt+2].c1ccc(-c2nc3ccccc3[nH]2)nc1 [Complex 6a],0.3 ± 0.03
2,"[Pt(2-(1H-Imidazol-2-yl)pyridine)(1R,2R-(+)-diaminocyclohexane)]^2+ [Complex 5b]",0.56 ± 0.11
3,"[Pt(2-pyrrolidin-2-yl pyridine)(1R,2R-(+)-diaminocyclohexane)]^2+ [Complex 4b]",43 ± 1
4,"N[C@H]1CCCC[C@@H]1N.[Pt+2].c1ccc(-c2ncc[nH]2)nc1 [Complex 5a, [Pt(2-(1H-Imidazol-2-yl)pyridine)(1S,2S-(+)-diaminocyclohexane)]^2+]",0.43 ± 0.07
